Consider 32 compounds from patent US9624238B2, “4H-thieno[3,2-C]chromene-based inhibitors of Notum Pectinacetylesterase and methods of their use” (Lexicon Pharmaceuticals, Inc., priority 2011, dated 2017).

Molecules are shown by their SMILES. A value given as a limit tells only on which side of the number the result lay.

In test [1] the target is T1, human notum pectinacetyltransferase (Homo sapiens, UniProt Q6P988).
T1 construct: made in house; unpurified conditioned medium used
T1 sequence (Q6P988 20-496): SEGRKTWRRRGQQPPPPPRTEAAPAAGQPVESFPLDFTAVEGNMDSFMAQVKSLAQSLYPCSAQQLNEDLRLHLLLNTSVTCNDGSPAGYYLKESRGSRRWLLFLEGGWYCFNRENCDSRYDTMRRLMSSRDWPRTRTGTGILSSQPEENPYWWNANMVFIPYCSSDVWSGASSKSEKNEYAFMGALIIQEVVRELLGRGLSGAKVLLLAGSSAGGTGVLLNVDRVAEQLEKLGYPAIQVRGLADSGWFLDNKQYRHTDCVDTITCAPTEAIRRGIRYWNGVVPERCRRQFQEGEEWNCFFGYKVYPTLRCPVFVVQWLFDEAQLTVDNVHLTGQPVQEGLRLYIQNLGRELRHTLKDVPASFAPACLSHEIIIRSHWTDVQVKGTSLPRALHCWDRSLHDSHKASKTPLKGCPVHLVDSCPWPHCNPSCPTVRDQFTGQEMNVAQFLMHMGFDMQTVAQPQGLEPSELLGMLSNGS
In words: Binding assay (OPTS esterase substrate, fluorimetric). The test is classed as biochemical. The note with it: class symbols. On the procedure:
Plasmid containing human notum pectinacetyltransferase in pcDNA3.1(+) vector was transfected into HEK (293 cells and clones were selecting by growing in presence of 400 ug/mL of G418. Condition media from these cells was used for the assay.

Test [2] deals with T1, human notum pectinacetyltransferase. The experiment in a line: Reporter assay (CellSensor LEF/TCF-bla FreeStyle 293F cells, Wnt3a and notum conditioned media). The test is classed as cell-based. Particulars: class symbols. On the procedure:
Plasmid containing human notum pectinacetyltransferase in pcDNA3.1(+) vector was transfected into HEK (293 cells and clones were selecting by growing in presence of 400 ug/mL of G418. The clone containing highest expression of human notum pectinacetyltransferase in the conditioned media was maintained for all future activity assays. L cells overexpressing and secreting Wnt3a into the conditioned media were purchased from ATCC.
The assay protocol was as follows. […] The cell growth medium consisted of DMEM with 10% Dialyzed FBS, 5 μg/ml Blasticidin (Invitrogen, R210-01), 0.1 mM NEAA, 25 mM HEPES and 1×GPS. Cells were then trypsinized by first rinsing with PBS, followed by addition of 5 mL of trypsin and incubation of plates at room temperature for two minutes. A total of 10 mL of assay media (Opti-MEM, plus 0.5% dialyzed FBS, 0.1 mM NEAA, 1 mM sodium pyruvate, 10 mM HEPES, 1×GPS) was then added per 15 cm plate. Cells were counted and suspended at 0.75 million cells per mL. […] After incubation of cells at 37° C. for 3 hours, 10 μL of 30 mM LiCl in assay medium was added per well, followed by incubation at 37° C. for another 3 hours. […] Ten μL of the Wnt3a/notum pentinacetyltransferase mixture was then transferred from Greiner plates to each well of the 384-well plates containing the CellSensor cells.

Regarding `COc1ccccc1C1CN(C(=O)c2cc3c(s2)-c2ccc(Cl)c(F)c2OC3)CC1C(=O)O` (stereo not shown), the IC50 in test [1] was < 1 µM. Further, in test [2], the EC50 was < 0.05 µM.
Turning to `N#CC1CCN(C(=O)c2cc3c(s2)-c2ccc(Cl)c(F)c2OC3)C1` (stereo not shown), the IC50 in test [1] is < 1 µM. Besides, the 50% effective concentration (EC50) in test [2] is < 0.05 µM.
For `CCC1Cc2cc(C(N)=O)sc2-c2c(F)ccc(F)c21` (stereo not shown), in that order: < 0.05 µM and < 0.05 µM.
For `CCC1Cc2cc(C(=O)O)sc2-c2c(F)ccc(F)c21` (stereo not shown), in that order: < 1 µM and < 0.05 µM.
On to `CC1Cc2cc(C(=O)O)sc2-c2ccccc21` (stereo not shown), for which, in test [1], the IC50 is < 1 µM. For the same compound, the EC50 in test [2] is < 0.05 µM.
For `NC(=O)c1cc2c(s1)-c1cccc(Cl)c1OC2`, in that order: < 1 µM and < 0.05 µM.
For `N#Cc1cccc2c1CCc1cc(C(N)=O)sc1-2`, in that order: < 1 µM and < 0.05 µM.
For `NC(=O)c1cc2c(s1)-c1cccc(F)c1OC2`, in that order: < 0.05 µM and < 0.05 µM.
As for `Cc1ccc2c(c1F)OCc1cc(C(=O)O)sc1-2`, the IC50 in test [1] was < 1 µM. In addition, the EC50 in test [2] is < 0.05 µM.
For `Cc1cccc2c1OCc1cc(C(N)=O)sc1-2`, in that order: < 1 µM and < 0.05 µM.
`NC(=O)c1cc2c(s1)-c1cc(F)cc(F)c1OC2`: in test [1], the IC50 is < 0.05 µM. Moreover, in test [2], the EC50 was < 0.05 µM.
For `CC1(C)Oc2c(F)cc(F)cc2-c2sc(C(N)=O)cc21`, the IC50 in test [1] was < 1 µM. Besides, the EC50 in test [2] is < 0.5 µM.
For `Cc1cc(C)c2c(c1)-c1sc(C(N)=O)cc1CO2`, in that order: < 2 µM and < 0.05 µM.
For `Cc1cc(C)c2c(c1)-c1sc(C(=O)O)cc1CO2`, in that order: < 1 µM and < 0.05 µM.
For `CC1(C)Cc2cc(C(=O)O)sc2-c2c(F)ccc(F)c21`, in that order: < 1 µM and < 0.05 µM.
With `O=C(O)c1cc2c(s1)-c1ccc(C(F)(F)F)cc1OC2`, the IC50 in test [1] was < 1 µM. For the same compound, in test [2], the EC50 was < 0.05 µM.
For `O=C(O)c1cc2c(s1)-c1ccc(Br)cc1CC2`, in that order: < 1 µM and < 0.05 µM.
For `O=C(O)c1cc2c(s1)-c1ccc(F)cc1SC2`, in that order: < 1 µM and < 0.05 µM.
On to `Cc1cc2c(cc1C)-c1sc(C(=O)O)cc1CO2`, for which, in test [1], the IC50 is < 1 µM. For the same compound, the EC50 in test [2] is < 0.05 µM.
For `Cc1cc(C)c2c(c1)OCc1cc(C(N)=O)sc1-2`, in that order: < 2 µM and < 0.05 µM.
Turning to `Cc1cc2c(cc1Cl)-c1sc(C(=O)O)cc1CO2`, the half-inhibitory concentration (IC50) in test [1] is < 1 µM. Further, the 50% effective concentration (EC50) in test [2] was < 0.05 µM.
For `CC1Oc2ccc(F)cc2-c2sc(C(N)=O)cc21` (stereo not shown), in that order: < 0.1 µM and < 0.05 µM.
As for `NC(=O)c1cc2c(s1)-c1cc(F)ccc1OC2`, in test [1], the IC50 was < 0.05 µM. The EC50 in test [2] was < 0.05 µM.
With `CC1Cc2cc(C(N)=O)sc2-c2cc(F)ccc21` (stereo not shown), the IC50 in test [1] was < 0.05 µM. In addition, in test [2], the concentration for a half-maximal effect (EC50) is < 0.05 µM.
For `Cc1cc(F)cc2c1OCc1cc(C(=O)O)sc1-2`, the IC50 in test [1] was < 0.1 µM. In addition, the EC50 in test [2] was < 0.05 µM.
For `Cc1cc2c(cc1F)-c1sc(C(=O)O)cc1CO2`, in that order: < 0.1 µM and < 0.05 µM.
Regarding `O=C(NCCN1CCCCC1)c1cc2c(s1)-c1ccccc1CC2`, the IC50 in test [1] was < 1 µM. Further, in test [2], the EC50 is < 1 µM.
As to `O=C(NO)c1cc2c(s1)-c1ccccc1CC2`, in test [1], the IC50 is < 0.05 µM. For the same compound, the EC50 in test [2] is < 0.05 µM.
For the compound `CCCNC(=O)c1cc2c(s1)-c1ccccc1CC2`, in test [1], the IC50 is < 0.1 µM. In addition, in test [2], the EC50 was < 0.5 µM.
For `CCOC(=O)c1cc2c(s1)-c1ccccc1CC2`, in that order: < 2 µM and < 0.05 µM.
For `COC(=O)C1CN(C(=O)c2cc3c(s2)-c2ccc(Cl)c(F)c2OC3)CC1c1ccccc1F` (stereo not shown), in that order: < 0.1 µM and < 0.05 µM.
For `CC(C)(C)OC(=O)NCCNC(=O)c1cc2c(s1)-c1ccccc1CC2`, in that order: < 2 µM and < 0.05 µM.
